Earlier results on one compound are cited in patent US20250170078A1, “STABLE PHARMACEUTICAL COMPOSITIONS OF HYDROXYUREA” (Slayback Pharma LLC., priority 2022, published 2025).

The conditions of data set [1]: oral.
Test in data set [2]: not given
The source holds these as a separate data set.

For data set [3] the following is noted: on its own.
The conditions of data set [4]: patients, dose escalation based on blood counts.

Turning to `NC(=O)NO` [Hydroxyurea], the solubility in water entry is on record as “freely soluble”. Moreover, in data set [1], the “absorption from the gastrointestinal tract” value is on record as “almost completely absorbed”. For the same compound, in data set [2], the “stability in aqueous solutions” value is given as “poor stability”. Further, the antimicrobial activity entry in data set [3] is reported as “high level of antimicrobial activity”. The maximum tolerable dose in data set [4] was 35 mg/kg/day.
